Assay: Human HepG2 cell viability assay in 384 well format
Format: toxicity, cell-based
Design: dose 125 nL, time 70.5 hour; concentration not given beside the values
Conditions: HepG2 cells, read-out: Inhibition

Row | Compound | cytotoxicity at 70.5 h
1 | Cc1cccnc1CC(C)NC1Cc2ccccc2C1 (centres undefined) | 5.92%
2 | COc1ccc(F)cc1C(C)NC(=O)Cn1ccc(=O)n(C)c1=O (centres undefined) | -6.42%
3 | O=C(CCN1CCCCC1)N1CCC(Cc2ccc(CO)cc2)C1 (centres undefined) | -6.38%
4 | CNS(=O)(=O)Cc1ccc(CNC(=O)c2ccccn2)cc1 | -9.74%
5 | Cc1nc(C2CCCN2CCS(C)(=O)=O)no1 (centres undefined) | 21.3%
6 | C[C@@H]1CN(C(=O)C2CCS(=O)(=O)CC2)C[C@@]1(O)C1CC1 | -19.6%
7 | CCNC(c1cccnc1)c1ccc(F)c(F)c1 (centres undefined) | -2.78%
8 | COCCNC(=O)CN(C)CCn1nc2ccccn2c1=O | -5.55%
9 | COC1CCN(Cc2csc(C(C)C)n2)CC1 | -5.9%
10 | CCCc1cc(C(=O)N[C@H](C)[C@@H](O)c2ccc(O)cc2)n(C)n1 | -11.6%
11 | Cc1noc(C)c1CC(=O)N1CCCC(Cc2ccccn2)C1 (centres undefined) | -7.69%
12 | CCCNC(c1cccnc1)c1ccc(F)c(C)c1 (centres undefined) | -13.4%
13 | Cc1ccc(Nc2nccc(C3CCCN(CC(=O)N(C)C)C3)n2)nc1 (centres undefined) | -16.1%
14 | c1cnn(CC2CCCN2Cc2nc(-c3ccoc3)no2)c1 (centres undefined) | 28.2%
15 | Cc1ccc(-c2ccsc2C(=O)NC2CCS(=O)(=O)C2)cc1 (centres undefined) | -3.7%
16 | Cc1ncc(CN2CCc3nc4cc(C(C)(C)C)nn4c(O)c3C2)n1C | 7.3%
17 | CCn1nc(C)c(CNC(=O)c2nnc3ccc(OC)cc3n2)c1C | -3.67%
18 | CCn1cc(C(=O)Nc2ccc(C)cc2C(=O)NC)cn1 | -3.07%
19 | CC(C)C(=O)N1CCC(C2C(=O)Nc3ccccc32)CC1 (centres undefined) | -16.1%
20 | CC(C)(CO)N1CCN(S(=O)(=O)CCCF)CC1 | -8.05%
21 | CCOCC(O)CN1CCN(C(=O)c2cccc(OC)c2)CC1 (centres undefined) | -2.53%
22 | c1nc(N2CCOCC2)ncc1-c1cncn1CCCN1CCCCC1 | -13.7%
23 | CCn1cncc1CNc1ccc(-c2nc(CC(C)C)no2)cn1 | 2.85%

Row | Compound | cytotoxicity at 70.5 h
24 | Cc1cccc(S(=O)(=O)NCc2cccc(CS(C)(=O)=O)c2)c1 | 9.39%
25 | CCOC(=O)c1cnn(-c2cc(Oc3cccc(C)c3)ncn2)c1N | -0.773%
26 | CN(C)c1ccc(C(=O)N2Cc3cnc(C(C)(C)C)nc3C2)cc1 | -2.91%
27 | CC(C)OCCCNC(=O)C1CCC(=O)N(C2CCCC2)C1 (centres undefined) | 17.3%
28 | Cc1ccc(NC(=O)NCCCn2nc3ccccn3c2=O)cc1 | -0.527%
29 | O=C(CN1C=Nc2ccccc2S1(=O)=O)NCCCc1ccccc1 | -12.6%
30 | CCC(=O)N1CCCCC1c1nc(O)c2c(n1)CN(C(=O)C1CC1)CC2 (centres undefined) | -7.02%
31 | Nc1nc2c(c(N3CCC(CCn4cccn4)CC3)n1)CCNCC2 | -5.53%
32 | CCn1nc(C)cc1C(=O)NCc1nc(C)cc(C)n1 | -13.2%
33 | O=C(c1cscn1)N1CCC2(CN(Cc3ccsc3)C2)C1 | 31.3%
34 | COCCN1C(=O)CC[C@@H]2[C@H]1CCN2Cc1ccc(C)s1 | -11.5%
35 | Cc1c(F)cccc1S(=O)(=O)NCCN | -0.256%
36 | COC(=O)COc1nc(CC(C)C)c2c(c1C#N)CCCC2 | 7.01%
37 | CSCC(=O)NC(Cc1ccc(C)cc1)c1ccccn1 (centres undefined) | 0.833%
38 | O=C(Cn1cc(C2CC2)nn1)NC(c1ccc(Cl)cc1)C1CC1 (centres undefined) | -8.06%
39 | CCN(CC)S(=O)(=O)N(C)Cc1ccc2c(c1)OCCO2 | -2.26%
40 | CSc1ncccc1C(=O)Nc1ccc(Cn2ccccc2=O)cc1 | 18.3%
41 | CCOc1ccc(-n2nnc(C(=O)O)c2-c2ccccn2)cc1 | -11.9%
42 | Cn1ccc(C(=O)N2CCCCC23CC(=O)N(Cc2ccccc2)C3)n1 (centres undefined) | 1.38%
43 | Cc1cnc(CNCc2cnc(-c3ccccc3C)s2)cn1 | -1.03%
44 | Cc1cccc(-c2nc(C)nn2CC(=O)NC(C)C2CC2)c1 (centres undefined) | -5.76%
45 | Cc1cccc(OC2CCN(S(=O)(=O)Cc3cccc(F)c3)CC2)n1 | -1.18%
46 | Cc1oncc1C(=O)N1CC[C@@H]2[C@@H]1CC(=O)N2Cc1cccnc1 | -5.14%

Row | Compound | cytotoxicity at 70.5 h
47 | Cc1noc(C)c1CN1CCCC2(CCN(CC3CCCC3)C2)C1 (centres undefined) | -3.39%
48 | O=C(NCc1cccnc1)NC1CCCN(c2ncccn2)C1 (centres undefined) | -10.3%
49 | CCN(C(c1ccc(OC)cc1)c1cccnc1)S(C)(=O)=O (centres undefined) | -9.72%
50 | COc1cccc(-c2nc3c([nH]2)CC(C)(C)CNC3=O)c1OC | -9.59%
51 | CCOC(=O)Cn1ccc(O)c(Cc2ccc(Cl)cc2Cl)c1=O | 0.692%
52 | CCCc1noc(CN(C)C(=O)C2COc3ccccc3C2)n1 (centres undefined) | -16.1%
53 | Cc1ccc(CN(CCCn2ccnc2)Cc2[nH]cnc2C)s1 | 2.51%
54 | COC(=O)N1CCCC(C(=O)Nc2nc(C)c(SC)s2)C1 (centres undefined) | -9.54%
55 | O=C(Cc1cccc(F)c1F)NS(=O)(=O)c1ccc(Cl)cn1 | -6.06%
56 | O=C(Nc1ccc(F)cc1F)NC1(CO)CCOCC1 | -4.4%
57 | Cc1nc(N2CCN(C(=O)NCc3cscn3)CC2)sc1C | -2.92%
58 | O=C(NCCOCC(F)(F)F)c1ccc(-c2ccccc2)[nH]c1=O | -7.3%
59 | CC(=O)N1Cc2nccn2CC(CNC(=O)c2cnccn2)C1 (centres undefined) | -13.1%
60 | CN1CCCN(C[C@@H]2CN(c3nc(C(N)=O)cs3)C[C@@H]2CO)CC1 | 4.88%
61 | CCNC(=O)[C@@H]1C[C@H](N)CN1Cc1ccc(Sc2ccc(C)cc2)o1 | -13.8%
62 | COc1cccc(C2CCCN2C(=O)c2ccc(=O)n(C)c2)c1 (centres undefined) | -3.72%
63 | CN1CCN(Cc2noc(CC3CCc4ccccc43)n2)CC1 (centres undefined) | -7.61%
64 | N#Cc1cccc(CN2CC3(CCCCN3c3cncnc3)CC2=O)c1 (centres undefined) | -0.331%
65 | CC(C)(C)c1ncc(CNc2ccccc2Cn2cncn2)s1 | -8.54%
66 | Cc1ncsc1CCC(=O)N(C)Cc1nc2ccccc2n1C | -1.06%
67 | O=c1ccc(-n2ccnc2)nn1CCNS(=O)(=O)c1ccc(Br)cc1 | 15.1%
68 | CC(C)(C)NC(=O)COc1ccc(Oc2ccccn2)cc1 | -6.32%
69 | Cc1ccc(CN2CCNC(=O)C2CC(=O)NCc2n[nH]c(C)n2)cc1 (centres undefined) | -3.13%

Row | Compound | cytotoxicity at 70.5 h
70 | Cc1cccc(C(=O)N2CC[C@@H]3CN(c4ncccn4)CCO[C@@H]3C2)c1 | -9.91%
71 | O=C(CCn1c(C(F)(F)F)cc2cccnc21)N1CCCC1 | -0.515%
72 | Cn1ccnc1CN1CCOC(C)(C(=O)N2CCOCC2)C1 (centres undefined) | 1.29%
73 | CC(C)(C)C(=O)N1CCN(Cn2nccc2-c2cccnc2)CC1 | -3.16%
74 | CCC(CC)c1cc(CNC(=O)N2CCCC(c3ncc[nH]3)C2)on1 (centres undefined) | 0.2%
75 | Cc1cccc(C(=O)N2CCN(C(=O)Cc3ccccn3)CC2)c1C | -2.92%
76 | CC(C)n1ccnc1CN1CCCN(C(=O)CC2CCCO2)CC1 (centres undefined) | 23.9%
77 | Cc1cc(C2CCCN(C(=O)c3cccnc3)C2)ccn1 (centres undefined) | -11.1%
78 | CC(C)c1nnc(NCc2cc3n(n2)CCN(C2CCCCC2)C3)s1 | -0.516%
79 | CC(=O)N1CC[C@]2(O)CCN(Cc3nc(C)c[nH]3)C[C@@H]2C1 | 9.69%
80 | CCN(CC)Cc1ccc(C(=O)N2CCCC2c2cnn(C)c2)o1 (centres undefined) | 21.2%
81 | COCCN1CCC(CNCc2c[nH]nc2C(C)(C)C)CC1 | 24.7%
82 | O=C(CCCc1nnc(-c2ccccc2)o1)N1CCN(C2CC2)CC1 | 0.0439%
83 | Cc1cnc(CNc2c(F)cccc2-n2cccn2)o1 | 7.74%
84 | Cc1ccc(-c2noc(Cn3nc(C(N)=O)ccc3=O)n2)cc1 | -8.12%
85 | CN(C)C(=O)C1CCCN1CCCNC(=O)c1ccccc1F (centres undefined) | -1.14%
86 | COc1cccc(C(C(=O)O)N2CCCN(c3ccnc(C)c3)CC2)c1 (centres undefined) | -7.15%
87 | CCCn1c(C)c(CC(=O)NC(C)(C)CO)c2c1CC(C)(C)CC2=O | 0.294%
88 | O=C(Cc1cccs1)NCc1ccnc(C2CCCOC2)n1 (centres undefined) | 3.29%
89 | CC(=O)NCC1CCN(C(=O)c2csc(-c3ccc(C)cc3C)n2)CC1 | -10.6%
90 | Cc1cc(CN2CCN(C(=O)NCc3c(C)noc3C)CC2)on1 | -13.9%
91 | COc1ccc(C2=CCN(C(=O)CN(C)Cc3ccoc3)CC2)cc1 | 49.4%
92 | C[C@@H]1CN(C(=O)c2cccs2)C[C@]12CCN(CCN(C)C)C2=O | 21.2%

Row | Compound | cytotoxicity at 70.5 h
93 | CCc1cnc(C)nc1NC1CC(=O)N(CC)C1 (centres undefined) | -7.16%
94 | CS(=O)(=O)c1ccc(NC(=O)N2C[C@H](O)[C@@H](N3CCOCC3)C2)cc1 | 20.5%
95 | CN(C)c1cc(C(=O)NC2(c3cccc(F)c3)CCOCC2)ccn1 | -1.02%
96 | COc1ccc(C(=O)NCCCOC(C)c2ccccc2)c(OC)c1 (centres undefined) | -11.1%
97 | N#Cc1cccn(CCOc2ccc(Cl)cc2)c1=O | -1.43%
98 | CN(C)C(=O)CCNC(=O)Nc1sc2ccccc2c1Cl | -7.68%
99 | O=C(CCc1ccc(Cl)cc1)N[C@@H]1CC[C@@H](O)[C@@H]1O | -6.03%
100 | CN(C(=O)CCOc1ccccc1)C1CCN(CC2CCOC2)CC1 (centres undefined) | -8.86%
101 | Cc1cnn(C2CCCN(C(=O)CCCNc3ncccn3)C2)c1 (centres undefined) | -14.5%
102 | CC(=O)N1CCCC1c1nccc(C)n1 (centres undefined) | -9.48%
103 | Cc1cc(CNC(=O)N(Cc2ccc(F)cc2F)C2CC2)no1 | 15.5%
104 | Cc1nc(C)c(C(=O)N2C[C@@H](C(=O)O)[C@H](C3CC3)C2)s1 | -1.71%
105 | CCOc1ccc(CNCC(O)c2ccccc2)cc1Cl (centres undefined) | -4.88%
106 | O=C1[C@@H]2CN(C3CCOCC3)C[C@H]2CCN1CC1CC1 | -10.2%
107 | NS(=O)(=O)CCNC(=O)c1ccc(-c2ccc(F)cc2)cc1F | -6.9%
108 | CC(=O)Nc1ccc(C(=O)N2CCSCC2c2ccc(C)o2)cc1 (centres undefined) | -4.02%
109 | CN(Cc1cccnc1)C[C@H]1OC[C@@H]2CCN(C(=O)C3CC3)C[C@@H]21 | -9.16%
110 | COc1cccc(-c2cnc(CNC(C)(C)c3nc(C)cs3)o2)c1 | -4.32%
111 | CCC1CN(Cc2ccccc2)CCN1Cc1nnc(C2CCC2)o1 (centres undefined) | -0.161%
112 | C=C(C)COc1ccc(C(=O)N(C)C(C)c2ccon2)cc1 (centres undefined) | -9.63%
113 | O=C(c1ccc2c(c1)OCO2)N1CCC(Nc2cccnn2)CC1 | 9.12%
114 | COc1ccccc1NCC(=O)Nc1cnn(Cc2ccccn2)c1 | -3.02%

From ChEMBL document CHEMBL3507680, “University of Dundee, Gates Library screen for HepG2 cell viability”
